These results are taken from patent US20070048329A1, “Epstein barr virus peptide epitopes, polyepitopes and delivery system therefor” (priority 2002, published 2007).

In one assay the target is HLA A2 (Homo sapiens, UniProt P04439, D140Y/D185E/D98H/E176V/E277Q/G131W/G231S/I119V/I121R/I166T/I218V/L300P/L318F/N151K/N90K/P208A/P217A/Q86G/Q94H/R138H/R169H/T345S). Briefly: MHC stabilisation assay on T2 cells. Format: cell-based. The arrangement: endogenous in cells; host or cells: T2 (.174×CEM.T2), TAP-negative B×T hybrid cell line. Conditions: 14-16 h at 26° C. then 2-3 h at 37° C., FACS. Here is the method:
FIG. 7: A: CTL recognition of variant and prototypic BLA A2-restricted LMP1 epitope […]. PHA blasts were sensitized with serial dilutions of each of the peptides and then exposed to either the […]-specific CTL clone, SB7. B: MHC stabilization analysis on T2 cells using variant and prototypic HLA A2-restricted LMP1 epitope. T2 cells were initially incubated with 200 μl of each of the peptides (10 μg/ml) for 14-16 h at 26° C. followed by incubation at 37° C. for 2-3 h. HLA A2 expression on these cells was analysed by FACS using HLA A2-specific monoclonal antibody.
To assess MHC binding by the HLA A2-restricted LMP1 epitope variants from EBV isolates, T2 cells (2×10^5) were incubated with 200 μl of each of the peptides (100 μg/ml) at 26° C. for 14-16 h, followed by incubation at 37° C. for 2-3 h. After the incubations, HLA A2 expression was measured by FACS using a specific monoclonal antibody (HB82, ATCC).

The test system of assay [1] is peptide-sensitised PHA blasts and LCLs. The assay is described as follows: 51Cr-release cytotoxicity assay with peptide-specific CTL lines and clones. It counts as cell-based, human. The conditions noted are these: serial dilutions of peptide, compared with wild-type YLLEMLWRL, CTL clone SB7. Here is the method:
Polyclonal CTL lines and LMP1-specific CTL clones were established according to previously published methods (Moss 1988; Khanna 1998). Briefly, 2×10^6 PBMCs were stimulated with 1×10^6 autologous lymphocytes (responder to stimulator ratio of 2:1) pulsed with 10 μM peptide for 1 hr in 2 ml in a 24-well plate. After 3 days, culture medium with IL-2 (10 U/ml) was added and the cells were further expanded. These lymphocytes were restimulated on day 7 with γ-irradiated (8000 rad) autologous LCLs. After 10 days in culture medium, the cells were used as polyclonal effectors in a standard ^51Cr-release assay against peptide-sensitised autologous PHA blasts.
To generate peripheral blood CTL clones specific for the LMP1 derived peptides, PBMCs of healthy donors were reactivated (2×10^6) PBMCs with peptide-sensitised (10 ug of peptide/ml) autologous lymphocytes (1×10^6) in 2 ml wells of a 24-well plate in culture medium. After 3 days, the cells were seeded onto 0.35% agarose and maintained in T cell growth medium containing rIL2 (50 IU/ml). After another 3 days, growing clones were transferred to 96-well round-bottom tissue culture plates (Life Technologies) and cultured in T cell growth medium containing rIL2 (50-100 IU/ml).
Target cells were pre-sensitized with synthetic peptide epitopes and then incubated with ^51Cr for 90 min. Following incubation, these cells were washed in growth medium and used as targets in a standard 5 h ^51Cr-release assay (Moss, 1988)
To further characterize the minimal T cell epitopes defined by ELISPOT assays we generated polyclonal and clonal CTL lines specific for these epitopes. PBMCs from the healthy seropositive donors were stimulated with synthetic peptide epitopes and the CTL clones or polyclonal lines were established and tested in standard ^51Cr-release assays. The […] peptide-specific CTL clones were generated using initial stimulation with peptide-sensitized autologous PBMC followed by continuous restimulation with irradiated autologous LCL. These CTL clones were screened for […]-specific CTL activity by ^51Cr release assays against peptide-sensitised autologous and allogeneic PHA blast and LCLs. […] Titration of this minimal epitope on autologous PHA blasts further confirmed the fine specificity of this CTL clone (FIG. 5B).

The next assay concerns CD8+ CTL. The assay is described as follows: Immunization of HLA A2/K^b transgenic mice, epitope-specific T cell responses. Conditions: mouse, in vivo. From the text: HLA A2/K^b transgenic mice used in this study have been described elsewhere (Theobald 1997). These mice express a chimeric class I molecule composed of the alpha 1 & 2 domains of the human A*0201 allele and the alpha 3 domains of the mouse H-2K^b class I molecules. These mice were vaccinated intraperitoneally with 10^8 plaque forming units of recombinant Ad5-LMPpoly or a control adenovirus. After 3 weeks, splenocytes were harvested and tested for epitope-specific T cell responses. These T cell responses were assessed using ELISPOT and in vivo CTL assays as herein described.

“Also recorded” adds a separate entry of the source.

As to YLLEILWRL, the “HLA A2 expression on T2 cells (HLA A2 binding)” value on HLA A2 is recorded as “significantly increased MHC expression on T2 cells”. Further, the “sensitizing autologous PHA blast to lysis by YLLEMLWRL-specific CTL clone” value in assay [1] is recorded as “recognized as efficiently as the wild-type epitope”.

Take “YFLEILWRL [variant of […] dominant in South-East Asian EBV isolates]”: the “HLA A2 expression on T2 cells (HLA A2 binding)” value at HLA A2 is recorded as “unable to rescue HLA A2 expression; also recorded: significant loss in HLA A2 binding”. Further, the “sensitizing autologous PHA blast to lysis by YLLEMLWRL-specific CTL clone” value in assay [1] is reported as “poorly recognized”.

B1: SEQ ID NO:81: polyepitope protein of thirteen contiguous LMP1 and LMP2 CTL epitopes (protein)
chain: MPYLFWLAAISSCSSCPLSKITYGPVFMCLRRRWRRLTVLLSAWILTALTAGFLIFLCLGGLLTMVVMSNTLLSAWIEDPPFNSLYLLEMLWRLYLQQNWWTLALLVLYSFALIALYLQQNW
Consider B1, for which, in the assay on CD8+ CTL, the “CD8+ CTL responses in polyepitope-immunized mice” value is on record as “induce CD8+CTL responses”.
